The values below come from patent US20060024350A1, “Biodegradable ocular devices, methods and systems” (priority 2004, published 2006).

Series [1] in a line: In vivo elution: HPLC detection of TA in tissues after 4-week subretinal implantation. Set-up: species or system rabbit. The following applies: four weeks after the implant, PCL/TA 60:40 subretinal.
For series [2] the following is noted: direct injection, posterior segment; cited from earlier work.
The conditions of series [3]: 72 hours after injection; cited from earlier work.

SMILES strings stand for the structures. Entries after “also recorded” stand apart in the source; their conditions may differ.

Regarding `CC1(C)O[C@@H]2C[C@H]3[C@@H]4CCC5=CC(=O)C=C[C@]5(C)[C@@]4(F)[C@@H](O)C[C@]3(C)[C@]2(C(=O)CO)O1` [TA, Triamcinolone acetonide], in series [1], the “TA detection in anterior structures or blood (HPLC)” value was “not detected” and the “TA detection in posterior tissue samples (HPLC)” value is given as “confirmed the presence; also recorded: localized to the posterior eye segment”.
With `C[C@]12C=CC(=O)C=C1CC[C@H]1[C@@H]3C[C@@H](O)[C@](O)(C(=O)CO)[C@@]3(C)C[C@H](O)[C@@]12F` [triamcinolone], in series [2], the “adverse or undesirable side effects observed” value was “elevations in intraocular pressure and the formation of, or acceleration of the development of cataracts”. Also, the “triamcinolone present in the vitreous associated with other tissues including retina, pigment epithelium, sclera” value in series [3] is “less than 1%”.
